Assay results from article PMC9503459, “Antifungal Activity, Structural Stability, and Immunomodulatory Effects on Human Immune Cells of Defensin from the Lentil Lens culinaris” (Membranes, 2022).
No end group written: not given here.

What was measured:
[1] = test system: proteolytic enzymes of Candida albicans; assay: Sensitivity to proteolytic enzymes of Candida albicans (cell lysate, SDS-PAGE); type: in vitro ADME; conditions: C. albicans lysate 10^9 cells/mL, up to 72 h, SDS-PAGE
Description: For study of Lc-def sensitivity to the clinical isolate of C. albicans, lysates of yeast cells in different concentration and pH were used basically as previously described for rhesus macaque θ-defensin 1 [22]. Cells were inoculated onto modified YPD medium and grown at 37 ℃ for 48 h before reaching the stationary phase of growth. Cells were harvested by centrifugation, washed two times in sterile phosphate buffered saline (PBS), pH 7.2, or sterile 40 mM sodium acetate, pH 4.0, and resuspended in the corresponding buffer to final concentrations of 1 × 10^9 cells/mL or 1 × 10^3 cells/mL. Two freeze-thaw cycles in liquid nitrogen were used for cell disruption, and supernatants were collected following centrifugation. Supernatants (12.5 μL) were mixed with water solutions (37.5 μL) of Lc-def, α-casein, Psd1, or LL-37 in concentration of 0.67 mg/mL and incubated at 37 ℃ for 72 or 24 h in the case of high or low cell concentration, respectively. To study the possible influence of Lc-def and Psd1 on the degradation process, supernatants (12.5 μL) were mixed with both α-casein or LL-37 in concentration of 1 mg/mL (25 μL) and Lc-def or Psd1 in concentration of 2 mg/mL (12.5 μL). As negative controls, α-casein and peptides were mixed with buffers as well as supernatants were mixed with water without the proteins. The samples were mixed with sample buffer without β-mercaptoethanol (BME), heated at 100 ℃ for 2 min, and analyzed by sodium dodecyl sulfate polyacrylamide gel electrophoresis (SDS-PAGE). Some independent experiments were performed in each case.

CD8+ T cytotoxic cells = assay: Cytokine response by multiplex xMAP, CD8+ T cytotoxic cells; type: cell-based, human; conditions: 2 µM, 24 h
Description: Colorectal adenocarcinoma Caco-2 cell line (ATCC HTB-37) was cultured in complete DMEM/F12 (1:1) medium containing 10% fetal bovine serum (FBS, Gibco) and 1X antibiotic-antimycotic solution (1XAAS, Invitrogen, Waltham, MA, USA). The acute monocytic leukemia THP-1 line (ATCC TIB-202) was cultured in complete RPMI-1640 medium, containing 10% FBS, 1XAAS, and […]. THP-1 cells were differentiated into pro-inflammatory macrophages (Mφ1) with phorbol 12-myristate 13-acetate (Sigma-Aldrich) for 24 h and subsequently polarized with lipopolysaccharide from E. coli (Sigma-Aldrich) and rhIFN-γ (Sigma-Aldrich) for another 48 h according to previously reported protocol. All cells were cultured in a humidified CO2 incubator (5% CO2, 37 °C). Primary peripheral blood mononuclear cells (PBMCs) collected from a healthy donor were purchased from American Type Culture Collection (ATCC PCS-800-011). CD4^+ T-helper and CD8^+ T cytotoxic cells were isolated from PBMCs by magnetic separation with mouse anti-human CD4-PE (clone 13B8.2, Beckman Coulter Diagnostics, Pasadena, CA, USA) and CD8-PE (clone REA734, Miltenyi Biotec, Bergisch Gladbach, Germany), Anti-PE MicroBeads (Miltenyi Biotec), and LS Separation Columns (Miltenyi Biotec). Isolated CD4^+ and CD8^+ cells were expanded separately with Dynabeads™ Human T-Expander CD3/CD28 (Gibco, Waltham, MA, USA) in RPMI-1640 supplemented with 10% FBS, 1XAAS and 100 U/mL rh-IL-2 (Gibco). Regulatory CD4^+ FoxP3^+ T cells (Tregs) were isolated from PBMCs by magnetic separation with CD4^+CD25^+ Regulatory T Cell Isolation Kit, human (Miltenyi Biotec). Primary CD14^+ blood monocytes were isolated from PBMCs by adherence according to standard technique. Monocyte-derived mature dendritic cells (moDCs) were obtained from CD14^+ blood monocytes according to the previously reported protocol. Briefly, blood monocytes were incubated in complete RPMI-1640 medium, containing 10% FBS, 1XAAS, 800 U/mL rhGM-CSF (Sci-Store, Russia, Moscow) and 500 U/mL rhIL-4 (Sci-Store) for 3 days. Fresh complete RPMI-1640 medium with rhGM-CSF and rhIL-4 was added to the culture on day 3. On day 5, fresh complete RPMI-1640 containing 100 U/mL rhTNF-α (Sigma) as well as 800 U/mL rhGM-CSF and 500 U/mL rhIL-4 was added and the culture was incubated for another 4 days until full maturation.
Caco-2 cells were seeded into the wells of a 48-well plate, coated with 0.1% bovine collagen (Sigma-Aldrich) for 24 h, 3 weeks before the experiment with complete DMEM/F12 (1:1) medium renewal every 2–3 days. Monocytes, moDCs, CD4^+ T-helper and CD8^+ T cytotoxic cells, Mφ1, and Regulatory CD4^+ FoxP3^+ T cells were seeded into the wells of 48-well plates in the complete RPMI-1640 medium supplemented with 10% Human AB serum (HABS, Capricorn Scientific, Ebsdorfergrund, Germany) and 1XAAS 24 h prior to the experiment; medium in Caco-2-containing wells was also replaced with the same medium. After 24 h, half of the medium in each well was replaced by fresh complete RPMI-1640 medium with 10% HABS, supplemented with 4 µM of Lc-def for the sample wells or fresh medium alone for the control wells. Cell cultures were kept in CO2-incubator (5% CO2, 37 °C) for another 24 h. Culture supernatants were collected 24 h later and stored at −70 °C degrees less than one month prior to the analytes assessment. […]

Lc-def: defensin from lentil Lens culinaris seeds (UniProt:B3F051), recombinant, overexpressed in Escherichia coli (KTCENLSDSFKGPCIPDGNCNKHCKEKEHLLSGRCRDDFRCWCTRNC; disulfide (positions not given here); ends not checked; also: disulfide bonds present, pairing not given here; UniProt B3F051 28-74, looked up)
stability to proteolysis by yeast ([1]; 40 mM sodium acetate pH 4.0, 37 °C): stable | stability to proteolysis by yeast ([1]; PBS pH 7.2, 37 °C, densitometry, immunoblotting): stable | EGF (CD8+ T cytotoxic cells): <1.95↓ pg/ml | Eotaxin (CD8+ T cytotoxic cells): <3.23↓ pg/ml | FGF-2 (CD8+ T cytotoxic cells): 0 pg/mL | FLT-3L (CD8+ T cytotoxic cells): <0.45↓ pg/ml | Fractalkine (CD8+ T cytotoxic cells): <23.19↓ pg/ml | G-CSF (CD8+ T cytotoxic cells): <2.57↓ pg/ml | GM-CSF (CD8+ T cytotoxic cells): <1.36↓ pg/ml | GROa (CD8+ T cytotoxic cells): <0.67↓ pg/ml | IFNa2 (CD8+ T cytotoxic cells): <4.43↓ pg/ml | IFNg (CD8+ T cytotoxic cells): <1.99↓ pg/ml | IL-1RA (CD8+ T cytotoxic cells): <0.83↓ pg/ml | IL-1a (CD8+ T cytotoxic cells): 9 pg/mL | IL-1b (CD8+ T cytotoxic cells): <18.72↓ pg/ml | IL-2 (CD8+ T cytotoxic cells): <0.31↓ pg/ml | IL-3 (CD8+ T cytotoxic cells): <0.48↓ pg/ml | IL-4 (CD8+ T cytotoxic cells): <0.31↓ pg/ml | IL-5 (CD8+ T cytotoxic cells): 9.01 pg/mL | IL-6 (CD8+ T cytotoxic cells): <0.30↓ pg/ml | IL-7 (CD8+ T cytotoxic cells): <0.33↓ pg/ml | IL-8 (CD8+ T cytotoxic cells): <0.49↓ pg/ml | IL-9 (CD8+ T cytotoxic cells): <1.05↓ pg/ml | IL-10 (CD8+ T cytotoxic cells): <0.68↓ pg/ml | IL-12 (p40) (CD8+ T cytotoxic cells): <3.02↓ pg/ml | IL-12 (p70) (CD8+ T cytotoxic cells): <1.48↓ pg/ml | IL-13 (CD8+ T cytotoxic cells): <5.00↓ pg/ml | IL-15 (CD8+ T cytotoxic cells): <1.45↓ pg/ml | IL-17A (CD8+ T cytotoxic cells): <1.55↓ pg/ml | IL-17E/IL-25 (CD8+ T cytotoxic cells): <20.59↓ pg/ml | IL-17F (CD8+ T cytotoxic cells): <16.96↓ pg/ml | IL-18 (CD8+ T cytotoxic cells): <0.35↓ pg/ml | IL-22 (CD8+ T cytotoxic cells): <8.31↓ pg/ml | IL-27 (CD8+ T cytotoxic cells): <8.55↓ pg/ml | IP-10 (CD8+ T cytotoxic cells): <1.56↓ pg/ml | M-GSF (CD8+ T cytotoxic cells): <23.75↓ pg/ml | MCP-1 (CD8+ T cytotoxic cells): <1.52↓ pg/ml | MCP-3 (CD8+ T cytotoxic cells): <3.95↓ pg/ml | MDC (CD8+ T cytotoxic cells): <0.35↓ pg/ml | MIG (CD8+ T cytotoxic cells): <3.43↓ pg/ml | MIP-1a (CD8+ T cytotoxic cells): <1.76↓ pg/ml | MIP-1b (CD8+ T cytotoxic cells): <1.92↓ pg/ml | PDGF-AA (CD8+ T cytotoxic cells): <7.38↓ pg/ml | PDGF-AB/BB (CD8+ T cytotoxic cells): <9.75↓ pg/ml | RANTES (CD8+ T cytotoxic cells): 366.74 pg/mL | TGF-a (CD8+ T cytotoxic cells): <0.66↓ pg/ml | TNFa (CD8+ T cytotoxic cells): <3.91↓ pg/ml | TNFb (CD8+ T cytotoxic cells): <0.73↓ pg/ml | VEGFa (CD8+ T cytotoxic cells): <1.27↓ pg/ml | effects on cytokine production (CD8+ T cytotoxic cells): No effects | sCD40L (CD8+ T cytotoxic cells): <6.66↓ pg/ml
